US20230309555A1, “ENVIRONMENTALLY RESPONSIVE TRANS-2-HEXENAL SUSTAINED-RELEASE AGENT, PREPARATION METHOD, AND APPLICATION” (ZHEJIANG UNIVERSITY, priority 2022, published 2023)

Experiments:
[1] = system: Botrytis cinerea; test: growth of Botrytis cinerea on potato dextrose agar plate medium; assay type: cell-based; conditions: after 4 days culture at 25 °C
Description: Botrytis cinerea lesion with a diameter of 5 mm was inoculated on the center of a potato dextrose agar medium plate. The experiment was performed by seven groups as follows: • a. A BLANK group: nothing was added; • b. A GSH group: 1 g reductive glutathione was added to a lid of a Petri dish and the Petri dish was sealed immediately; • c. A GSH3h group: 1 g reductive glutathione was added to a lid of a Petri dish and then the Petri dish was sealed after being left open for 3 h at room temperature; • d. A Group […]: 20 μL trans-2-hexenal was added to a lid of a Petri dish and the Petri dish was sealed immediately; • e. An E-2-[…] group: 20 μL trans-2-hexenal was added to a lid of a Petri dish and the Petri dish was sealed after being left open for 3 h at room temperature; • f. […] After all groups were sealed completely, the groups were inverted and cultured at 25° C.The growth of Botrytis cinerea was checked regularly.

[2] = 0.05 g product, sealed vial 7 d; 4, 25, 45 °C; relative humidity 0%, 30%, 50%, 70%, 85%, 100%
Description: 20 mL glass vials were filled with 3 g of silica gel, 3 mL of saturated magnesium chloride solution, 3 mL of saturated potassium carbonate solution, 3 mL of saturated potassium iodide solution, 3 mL of saturated of potassium chloride solution, and 3 mL of pure water and then sealed until reaching relative humidity of 0%, 30%, 50%, 70%, 85% and 100%, respectively, and the mixed solution was balanced at 4° C. for 1 h. 0.05 g product was weighed and placed in a 2 mL glass vial, then transferred to the 20 mL glass vial and sealed for 7 d, and the release amount was measured every day.
20 mL glass vials were filled with 3 g of silica gel, 3 mL of saturated magnesium chloride solution, 3 mL of saturated potassium carbonate solution, 3 mL of saturated potassium iodide solution, 3 mL of saturated potassium chloride solution, and 3 mL of pure water until reaching relative humidity of 0%, 30%, 50%, 70%, 85% and 100%, respectively, and the mixed solution was balanced at 25° C. for 1 h. 0.05 g product was weighed in a 2 mL glass vial, then transferred to the 20 mL glass vial and sealed for 7 d, and the release amount was measured every day. […]

[3] = system: Botrytis cinerea; conditions: strawberries injected with 4 µL of 5×10^5 cfu/mL Botrytis cinerea; 6 g product at bottom of fresh-keeping box; room temperature
Description: Strawberries which were harvested at the same maturity, similar in size and without any infestation with insects or pets and damage, were selected. The strawberries were surface-sterilized by immersing in 0.5% (v/v) sodium hypochlorite for 5 min, then washed with sterile water to remove residues and dried at room temperature. The strawberries were randomly divided into 2 groups, each group including 33 strawberries, and then packed into a certain volume of fresh-keeping boxes (11 strawberries per box). In group a, 4 µL of 5×10^5cfu/mL of Botrytis cinerea solution was injected into the equatorial part of the strawberry. […] The experiment was conducted at room temperature and the strawberries were observed daily for decay, and the diameter of the lesions was measured daily.

[4] = Petri dish sealed after being left open for 3 h at room temperature
[5] = Petri dish sealed immediately after addition

| Structure (SMILES) | difference in bacterial inhibition results between group sealed immediately and group sealed after being left open for 3 h ([1]; 1 g product) | lesion diameter of Botrytis cinerea on plate medium [1, 4] | lesion diameter of Botrytis cinerea on plate medium [1, 5] | release rate of trans-2-hexenal from the products [2] | bacterial inhibition (incidence of fruit gray mold) [3] | growth diameters of the lesion of fruit [3] |
| --- | --- | --- | --- | --- | --- | --- |
| CCCC(CC=O)SC[C@H](NC(=O)CC[C@H](N)C(=O)O)C(=O)NCC(=O)O (stereo partly shown) | little difference | significantly smaller than that of the blank group | significantly smaller than that of the blank group | increased with the increase in relative humidity and temperature | better than the control group | lower than that of the control group |
| N[C@@H](CCC(=O)N[C@@H](CS)C(=O)NCC(=O)O)C(=O)O [reductive glutathione] |  | not significantly different from the blank group | not significantly different from the blank group |  |  |  |
| CCC/C=C/C=O [trans-2-hexenal] |  | larger than that of the glutathione/trans-2-hexenal addition product group | significantly lower lesion diameter than other groups |  |  |  |
